According to patent publication US20260242352A1, “INHIBITION OF SHIP1 AS A THERAPEUTIC STRATEGY FOR THE TREATMENT OF ALZHEIMER'S DISEASE” (The Trustees of Indiana University, priority 2022, published 2026):
pEC50, pIC50: −log10 of the molar value.

Assays:
[1] = test system: HMC3 cells; experiment: pHrodo-myelin phagocytosis/cell health assay, HMC3 cells; type: cell-based; details: Homo sapiens, compound 48 hrs, 60 μM to 3 nM, (n) in cell
Experimental: (§1) pHrodo-myelin phagocytosis/cell health assay with microglial cells. This 384-well plate high content imaging assay was developed to quantify phagocytosis and cell health simultaneously using either BV2 or HMC3 immortalized microglial cell lines or primary microglia isolated from mouse brain. Cells were cultured in DMEM GlutaMax media (ThermoFisher) containing 10% FBS and Pen-Strep in 37° C. 5% CO2 incubator.
(§2) Day 1: Cells were plated (Corning Falcon 384 well Optilux Black and clear bottom plates for imaging) with BV2 at 400 cells/45 μl/well, HMC3 at 600 cells/45 μl/well, or primary at 2000 cell/45 μl/well.
(§3) Day 2: Cells were treated with 10× serially diluted compounds in a dose range of 60 μM to 3 nM for 48 hrs at 37° C.
(§4) Day 3: Cells were seeded with pHrodo-myelin (for total 20 hrs) 24 hrs after starting compound treatment. The pHrodo-myelin stocks were at 1 mg/ml (protein equivalent) stored in −20° C. or −80° C. freezer. Stocks were thawed and diluted with culture media into 10× seeding solution (50 μg/ml) and added 5 μl/well to 384 well cell plate.
(§5) Day 4: Cell staining and imaging. Nuclear staining solution was prepared by adding 1 μl of 10 mg/mL Hoechst-33342 to every 1 ml culture media that will be added to cell plate at 20 μl/well. The final concentration of Hoechst-33342 to cells was about 2.5 μg/ml. Cell plates were incubated for >30 min at 37° C. before imaging. Cell plates were scanned with an ArrayScan automatic high content imaging system using a 10× objective lens, 4 fields/well collected. Three measurements were obtained 1) mean total phagocytosis spot intensity per cell, 2) total cell counts per well, and 3) mean average nuclear intensity per cell for cell health.
(§6) This 384-well plate high content imaging assay was developed to quantify phagocytosis and cell health simultaneously using either BV2 or HMC3 immortalized microglial cell lines or primary microglia isolated from mouse brain. Cells were cultured in DMEM GlutaMax media (ThermoFisher) containing 10% FBS and Pen-Strep in 37° C. 5% CO2 incubator. Day 1: Cells were plated (Corning Falcon 384 well Optilux Black and clear bottom plates for imaging) with BV2 at 400 cells/45 μl/well, HMC3 at 600 cells/45 μl/well, or primary at 2000 cell/45 μl/well. Day 2: Cells were treated with 10× serially diluted compounds in a dose range of 60 μM to 3 nM for 48 hrs at 37° C. Day 3: Cells were seeded with pHrodo-myelin (for total 20 hrs) 24 hrs after starting compound treatment. The pHrodo-myelin stocks were at 1 mg/ml (protein equivalent) stored in −20° C. or −80° C. freezer. Stocks were thawed and diluted with culture media into 10× seeding solution (50 μg/ml) and added 5 μl/well to 384 well cell plate. Day 4: Cell staining and imaging. Nuclear staining solution was prepared by adding 1 μl of 10 mg/mL Hoechst-33342 to every 1 ml culture media that will be added to cell plate at 20 μl/well. The final concentration of Hoechst-33342 to cells was about 2.5 μg/ml. Cell plates were incubated for >30 min at 37° C. before imaging. Cell plates were scanned with an ArrayScan automatic high content imaging system using a 10× objective lens, 4 fields/well collected. Three measurements were obtained 1) mean total phagocytosis spot intensity per cell, 2) total cell counts per well, and 3) mean average nuclear intensity per cell for cell health.

[2] = Pharmacokinetics in C57BL/6J mice; type: in vivo, mouse; details: dosed orally at 100 mg/kg
Experimental: Pharmacokinetics of Compound 9. Compound 9 was formulated at 5 mg/ml in HPMC (1%)/Tween 80 (0.25%)/purified water. Male C57BL/6J mice aged 8-12 weeks from The Jackson Laboratory were dosed (100 mg/kg, 20 ml/kg) via oral gavage. Plasma exposures at 0.5, 1, 2, 4, 6, 8, 12 hr and terminal at 24 hr were obtained. Brain exposures were obtained at terminal 4 and 24 hrs. The pharmacokinetics of Compound 10 was obtained in a similar manner to Compound 9. Compound was formulated in hydroxyethylcellulose (1%)/Tween 80 (0.25%)/antifoam (0.050%)/water (purified) at a concentration of 5 mg/ml. 100 mg/kg, 20 ml/kg was dosed via oral gavage. Plasma exposures at 0.25, 0.5, 1, 2, 8 hr and terminal at 24 hrs were obtained. Brain exposures were obtained at terminal 4 and 24 hrs. The results are depicted in FIG. 4. Pharmacokinetics of compound 10 in C57BL/6J Mice were obtained in a similar manner as compound 9. The results are depicted in FIG. 4.

[3] = test system: BV2 cells; experiment: pHrodo-myelin phagocytosis/cell health assay, BV2 cells; type: cell-based; details: Mus musculus, BV-2, compound 48 hrs, 60 μM to 3 nM, (n) in cell
Experimental: as §1, §2, §3, §4, §5, §6

[4] = test system: phosphorylated and total AKT (pAKT/tAKT) in THP1 cells; experiment: PhosphoAKT assay; type: cell-based; details: Homo sapiens, THP-1, 1.5 h, 90 minutes, pAKT (S473)/tAKT ratio, (n) in cell
Experimental: (§7) PhosphoAKT assay. THP1 cells were treated with inhibitors for 90 minutes and then the levels of phosphorylated and total AKT (pAKT/tAKT) were detected using the Perkin Elmer Alpha SureFire Ultra Multiplex PhosphoAKT (S473) kit according to the manufacturer's directions. IC50 values were calculated by fitting the ratio of pATK/tAKT versus inhibitor concentration.
as §7, with “THP1” for “PhosphoAKT assay. THP1”

| Structure (SMILES) | pEC50 [1] | exposure in brain [2] [µM] | exposure in plasma [2] [µM] | pEC50 [3] | pIC50 [4] |
| --- | --- | --- | --- | --- | --- |
| Cl.Clc1ccccc1COc1cncc(-c2cnn(C3CCNCC3)c2)c1 [Compound 9, 3-((2-chlorobenzyl)oxy)-5-(1-(piperidin-4-yl)-1H-pyrazol-4-yl)pyridine hydrochloride] | 6.23 | 0.5 | 5 | 6.13 |  |
| Clc1ccccc1COc1cncc(-n2cc(C3CCNCC3)cn2)c1 [Compound 28, 3-((2-chlorobenzyl)oxy)-5-(4-(piperidin-4-yl)-1H-pyrazol-1-yl)pyridine] |  |  |  |  | 5.25 |
| CC(C)(C)CC(=O)N1CCC(n2cc(-c3cncc(OCc4ccccc4Cl)c3)cn2)CC1 [Compound 16, 1-(4-(4-(5-((2-chlorobenzyl)oxy)pyridin-3-yl)-1H-pyrazol-1-yl)piperidin-1-yl)-3,3-dimethylbutan-1-one] | 5.68 |  |  | 5.93 | < 4.22 |
| CC(C)(C)CCN1CCC(n2cc(-c3cncc(OCc4ccccc4Cl)c3)cn2)CC1 [Compound 15, 3-((2-chlorobenzyl)oxy)-5-(1-(1-(3,3-dimethylbutyl)piperidin-4-yl)-1H-pyrazol-4-yl)pyridine] | 5.68 |  |  | 5.65 | 4.75 |
| Clc1ccccc1COc1cncc(-n2ccc(C3CCNCC3)n2)c1 [Compound 27, 3-((2-chlorobenzyl)oxy)-5-(3-(piperidin-4-yl)-1H-pyrazol-1-yl)pyridine] |  |  |  |  | < 4.22 |
| Cc1ccccc1COc1cncc(-c2cnn(C3CCNCC3)c2)c1 [Compound 25, 3-[(2-Methylphenyl)methoxy]-5-[1-(piperidin-4-yl)-1H-pyrazol-4-yl]pyridine] | 5.87 |  |  |  | 4.23 |
| Cl.Clc1ccc(COc2cncc(-c3cnn(C4CCNCC4)c3)c2)c(Cl)c1 [Compound 10, 3-((2,4-dichlorobenzyl)oxy)-5-(1-(piperidin-4-yl)-1H-pyrazol-4-yl)pyridine hydrochloride] | 6.51 | 6 | 2 | 5.76 | 5.19 |
| Clc1ccccc1COc1cncc(-c2ccn(C3CCNCC3)n2)c1 [Compound 26, 3-((2-chlorobenzyl)oxy)-5-(1-(piperidin-4-yl)-1H-pyrazol-3-yl)pyridine] |  |  |  |  | 5.11 |
| C[C@H](Oc1cncc(-c2cnn(C3CCNCC3)c2)c1)c1ccccc1Cl [Compound 21, (S)-3-(1-(2-chlorophenyl)ethoxy)-5-(1-(piperidin-4-yl)-1H-pyrazol-4-yl)pyridine] | 6.14 |  |  | 6.40 |  |
| CC(C)(C)OC(=O)N1CCC(n2cc(-c3cncc(OCc4ccccc4Cl)c3)cn2)CC1 [Compound 1, tert-butyl 4-(4-{5-[(2-chlorophenyl)methoxy]pyridin-3-yl}-1H-pyrazol-1-yl)piperidine-1-carboxylate] | 4.80 |  |  | 5.63 |  |
| Clc1ccccc1COc1cccc(-c2cnn(C3CCNCC3)c2)c1 [Compound 29, 4-(4-(3-((2-chlorobenzyl)oxy)phenyl)-1H-pyrazol-1-yl)piperidine] |  |  |  |  | 5.18 |
| C[C@@H](Oc1cncc(-c2cnn(C3CCNCC3)c2)c1)c1ccc(Cl)cc1 [Compound 23, (R)-3-(1-(4-chlorophenyl)ethoxy)-5-(1-(piperidin-4-yl)-1H-pyrazol-4-yl)pyridine] | 6.84 |  |  | 5.59 | 5.39 |
| CC(C)(C)OC(=O)N1CCC(n2cc(-c3cncc(OCc4ccccc4)c3)cn2)CC1 [Compound 4, tert-butyl 4-(4-(5-(benzyloxy)pyridin-3-yl)-1H-pyrazol-1-yl)piperidine-1-carboxylate] | 5.70 |  |  | 5.49 | 4.50 |
| Cc1ccccc1COc1cncc(-c2cnn(C3CCN(C(=O)OC(C)(C)C)CC3)c2)c1 [Compound 3, tert-butyl 4-(4-(5-((2-methylbenzyl)oxy)pyridin-3-yl)-1H-pyrazol-1-yl)piperidine-1-carboxylate] | 5.38 |  |  | 5.99 | 4.51 |
| CC(C)(C)OC(=O)N1CCC(n2cc(-c3cncc(OCc4ccccc4F)c3)cn2)CC1 [Compound 2, tert-butyl 4-(4-(5-((2-fluorobenzyl)oxy)pyridin-3-yl)-1H-pyrazol-1-yl)piperidine-1-carboxylate] | 5.84 |  |  | 5.81 |  |
| CC(C)(C)OC(=O)N1CCC(n2cc(-c3cncc(OCc4c(Cl)cccc4Cl)c3)cn2)CC1 [Compound 5, tert-butyl 4-(4-(5-((2,6-dichlorobenzyl)oxy)pyridin-3-yl)-1H-pyrazol-1-yl)piperidine-1-carboxylate] | 5.43 |  |  |  |  |
| CC(C)(C)OC(=O)N1CCC(n2cc(-c3cncc(OCc4ccc(Br)cc4)c3)cn2)CC1 [Compound 7, tert-butyl 4-(4-(5-((4-bromobenzyl)oxy)pyridin-3-yl)-1H-pyrazol-1-yl)piperidine-1-carboxylate] | 5.61 |  |  | 6.12 |  |
